# Results reported in patent publication US12637424B2, “Pharmaceutical salt of an arylpyrrole derivative” (SENTINEL ONCOLOGY LIMITED, priority 2020, dated 2026).
# Experiments:
# Assay in all cases: DiscoverX KinomeScreen competition binding assay (kinase selectivity panel)
# [1] = molecular target: T1, panel of ninety-seven kinases (Homo sapiens, UniProt O14920); conditions: IKBKB; screened at 3000 nM
# T1 construct: purchased DiscoverX; host or cells: E. coli (BL21-derived, T7 phage display) or HEK-293
# In short: (§1)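 Kinases on T7 phage (BL21-derived E. coli host) or DNA-tagged from HEK-293 cells compete between compound and a bead-immobilized biotinylated ligand. Captured kinase is eluted and quantified by qPCR. Compound is tested at 3000 nM (3 μM); binding is reported as % Ctrl, with DMSO as 100% and control compound as 0%.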
# [2] = molecular target: T2, panel of ninety-seven kinases (Homo sapiens, UniProt P29317); conditions: EPHA2; screened at 3000 nM
# T2 construct: purchased DiscoverX; host or cells: E. coli (BL21-derived, T7 phage display) or HEK-293
# In short: as §1
# [3] = molecular target: T3, panel of ninety-seven kinases (Homo sapiens, UniProt P51812); conditions: RPS6KA3; screened at 3000 nM
# T3 construct: purchased DiscoverX; host or cells: E. coli (BL21-derived, T7 phage display) or HEK-293
# In short: as §1
# [4] = molecular target: T4, panel of ninety-seven kinases (Homo sapiens, UniProt Q02750); conditions: MAP2K1; screened at 3000 nM
# T4 construct: purchased DiscoverX; host or cells: E. coli (BL21-derived, T7 phage display) or HEK-293
# In short: as §1
# [5] = molecular target: T5, panel of ninety-seven kinases (Homo sapiens, UniProt Q13873); conditions: BMPR2; screened at 3000 nM
# T5 construct: purchased DiscoverX; host or cells: E. coli (BL21-derived, T7 phage display) or HEK-293
# In short: as §1
# [6] = molecular target: T6, panel of ninety-seven kinases (Homo sapiens, UniProt Q9BXA7); conditions: TSSK1B; screened at 3000 nM
# T6 construct: purchased DiscoverX; host or cells: E. coli (BL21-derived, T7 phage display) or HEK-293
# In short: as §1
# [7] = system: panel of ninety-seven kinases; conditions: for % Ctrl @ 3 μM: screened at 3000 nM
# In short: as §1
# T2 sequence (P29317 24-976): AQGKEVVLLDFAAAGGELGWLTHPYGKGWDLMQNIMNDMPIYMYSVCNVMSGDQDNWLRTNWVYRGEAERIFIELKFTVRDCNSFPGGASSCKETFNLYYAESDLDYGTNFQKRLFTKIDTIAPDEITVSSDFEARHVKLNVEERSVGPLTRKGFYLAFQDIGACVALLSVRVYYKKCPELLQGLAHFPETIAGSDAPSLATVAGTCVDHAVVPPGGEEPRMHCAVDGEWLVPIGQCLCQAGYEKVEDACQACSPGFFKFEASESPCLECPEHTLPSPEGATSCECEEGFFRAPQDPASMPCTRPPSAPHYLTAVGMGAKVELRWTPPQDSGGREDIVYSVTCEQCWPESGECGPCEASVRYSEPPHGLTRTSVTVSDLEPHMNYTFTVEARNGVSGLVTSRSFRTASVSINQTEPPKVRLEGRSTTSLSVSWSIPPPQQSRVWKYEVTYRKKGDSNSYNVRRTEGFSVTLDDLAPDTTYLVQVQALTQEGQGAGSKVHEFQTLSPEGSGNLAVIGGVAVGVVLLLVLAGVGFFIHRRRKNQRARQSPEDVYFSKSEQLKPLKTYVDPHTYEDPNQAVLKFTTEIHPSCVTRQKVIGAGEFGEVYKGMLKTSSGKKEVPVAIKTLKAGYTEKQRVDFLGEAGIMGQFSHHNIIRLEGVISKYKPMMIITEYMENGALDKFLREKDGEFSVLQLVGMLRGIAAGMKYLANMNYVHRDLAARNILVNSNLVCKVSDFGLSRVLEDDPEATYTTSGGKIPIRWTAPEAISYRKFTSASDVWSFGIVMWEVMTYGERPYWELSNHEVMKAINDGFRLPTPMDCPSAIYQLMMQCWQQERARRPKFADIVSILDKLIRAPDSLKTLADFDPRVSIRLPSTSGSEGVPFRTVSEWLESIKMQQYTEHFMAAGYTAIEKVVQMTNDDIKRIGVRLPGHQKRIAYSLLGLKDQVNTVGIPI
# T3 sequence (P51812 whole entry): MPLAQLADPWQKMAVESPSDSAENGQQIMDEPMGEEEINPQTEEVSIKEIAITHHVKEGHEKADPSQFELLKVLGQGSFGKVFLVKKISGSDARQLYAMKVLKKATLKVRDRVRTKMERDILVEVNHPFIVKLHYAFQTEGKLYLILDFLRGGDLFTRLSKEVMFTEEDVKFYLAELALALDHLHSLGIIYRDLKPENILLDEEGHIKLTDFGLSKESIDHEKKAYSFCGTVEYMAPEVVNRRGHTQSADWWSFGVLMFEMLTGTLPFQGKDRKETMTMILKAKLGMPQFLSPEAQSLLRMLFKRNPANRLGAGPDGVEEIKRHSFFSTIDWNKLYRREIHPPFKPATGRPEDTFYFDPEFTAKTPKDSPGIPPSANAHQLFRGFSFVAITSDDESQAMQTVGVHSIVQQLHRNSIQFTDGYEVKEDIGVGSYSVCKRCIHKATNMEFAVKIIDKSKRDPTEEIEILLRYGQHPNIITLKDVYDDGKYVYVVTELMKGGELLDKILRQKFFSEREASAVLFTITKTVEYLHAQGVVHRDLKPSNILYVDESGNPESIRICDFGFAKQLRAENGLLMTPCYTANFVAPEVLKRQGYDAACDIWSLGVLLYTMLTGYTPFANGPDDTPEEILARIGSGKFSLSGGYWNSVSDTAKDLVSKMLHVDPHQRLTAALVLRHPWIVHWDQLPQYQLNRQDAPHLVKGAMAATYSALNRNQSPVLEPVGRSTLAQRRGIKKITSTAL
# T4 sequence (Q02750 whole entry): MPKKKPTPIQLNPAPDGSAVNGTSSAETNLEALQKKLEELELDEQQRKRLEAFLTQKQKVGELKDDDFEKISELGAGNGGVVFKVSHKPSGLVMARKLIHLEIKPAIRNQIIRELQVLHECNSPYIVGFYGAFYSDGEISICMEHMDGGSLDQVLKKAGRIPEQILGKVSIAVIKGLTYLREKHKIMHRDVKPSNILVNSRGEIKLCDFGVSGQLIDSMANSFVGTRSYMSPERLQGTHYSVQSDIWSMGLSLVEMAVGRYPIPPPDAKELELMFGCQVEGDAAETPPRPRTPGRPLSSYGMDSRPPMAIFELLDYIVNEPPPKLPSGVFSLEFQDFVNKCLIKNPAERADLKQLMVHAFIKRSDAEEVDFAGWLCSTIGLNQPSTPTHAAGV
# T1 sequence (O14920 whole entry): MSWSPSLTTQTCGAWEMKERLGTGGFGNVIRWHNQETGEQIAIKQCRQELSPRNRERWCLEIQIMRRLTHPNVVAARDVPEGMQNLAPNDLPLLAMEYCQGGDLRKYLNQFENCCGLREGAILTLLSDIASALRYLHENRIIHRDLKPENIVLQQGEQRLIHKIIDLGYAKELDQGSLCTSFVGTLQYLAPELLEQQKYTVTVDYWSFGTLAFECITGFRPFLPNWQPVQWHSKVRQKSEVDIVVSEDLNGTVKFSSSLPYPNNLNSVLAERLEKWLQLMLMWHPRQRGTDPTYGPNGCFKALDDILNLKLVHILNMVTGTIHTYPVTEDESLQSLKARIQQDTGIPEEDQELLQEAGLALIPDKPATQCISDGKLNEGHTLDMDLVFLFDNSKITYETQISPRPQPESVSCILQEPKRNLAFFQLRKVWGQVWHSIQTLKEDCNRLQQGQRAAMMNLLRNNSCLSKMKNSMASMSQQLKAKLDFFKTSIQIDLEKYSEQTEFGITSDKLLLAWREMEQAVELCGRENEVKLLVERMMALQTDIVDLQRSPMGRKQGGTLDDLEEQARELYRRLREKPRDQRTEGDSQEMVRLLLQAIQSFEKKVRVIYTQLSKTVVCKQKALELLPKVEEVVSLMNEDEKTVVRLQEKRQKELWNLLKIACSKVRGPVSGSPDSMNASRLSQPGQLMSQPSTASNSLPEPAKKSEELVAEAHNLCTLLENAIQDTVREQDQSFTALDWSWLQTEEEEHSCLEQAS
# T5 sequence (Q13873 27-1038): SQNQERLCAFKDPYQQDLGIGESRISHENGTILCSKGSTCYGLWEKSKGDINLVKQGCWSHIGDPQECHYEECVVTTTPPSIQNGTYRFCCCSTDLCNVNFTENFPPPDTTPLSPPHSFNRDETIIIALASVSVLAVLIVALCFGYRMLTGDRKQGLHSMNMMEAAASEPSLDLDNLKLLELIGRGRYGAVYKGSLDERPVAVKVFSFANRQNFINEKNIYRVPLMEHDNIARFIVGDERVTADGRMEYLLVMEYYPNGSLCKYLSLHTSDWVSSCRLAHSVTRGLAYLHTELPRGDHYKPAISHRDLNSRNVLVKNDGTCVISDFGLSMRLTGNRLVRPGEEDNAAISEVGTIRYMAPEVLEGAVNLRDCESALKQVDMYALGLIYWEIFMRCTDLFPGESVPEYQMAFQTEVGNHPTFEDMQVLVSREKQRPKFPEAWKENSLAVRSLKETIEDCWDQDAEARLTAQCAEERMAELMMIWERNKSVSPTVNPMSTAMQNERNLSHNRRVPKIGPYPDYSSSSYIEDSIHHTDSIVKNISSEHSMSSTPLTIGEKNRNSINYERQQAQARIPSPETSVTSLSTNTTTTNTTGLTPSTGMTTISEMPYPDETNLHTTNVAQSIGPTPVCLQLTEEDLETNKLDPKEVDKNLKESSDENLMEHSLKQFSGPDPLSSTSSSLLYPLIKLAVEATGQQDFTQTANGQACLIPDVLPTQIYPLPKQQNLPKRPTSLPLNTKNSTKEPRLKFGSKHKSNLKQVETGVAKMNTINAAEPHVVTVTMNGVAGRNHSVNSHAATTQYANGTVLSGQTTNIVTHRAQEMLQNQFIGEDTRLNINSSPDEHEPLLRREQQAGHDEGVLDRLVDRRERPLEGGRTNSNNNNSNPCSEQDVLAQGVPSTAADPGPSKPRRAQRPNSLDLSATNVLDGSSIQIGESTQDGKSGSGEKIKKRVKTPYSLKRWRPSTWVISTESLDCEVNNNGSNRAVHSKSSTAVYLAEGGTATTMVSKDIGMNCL
# T6 sequence (Q9BXA7 whole entry): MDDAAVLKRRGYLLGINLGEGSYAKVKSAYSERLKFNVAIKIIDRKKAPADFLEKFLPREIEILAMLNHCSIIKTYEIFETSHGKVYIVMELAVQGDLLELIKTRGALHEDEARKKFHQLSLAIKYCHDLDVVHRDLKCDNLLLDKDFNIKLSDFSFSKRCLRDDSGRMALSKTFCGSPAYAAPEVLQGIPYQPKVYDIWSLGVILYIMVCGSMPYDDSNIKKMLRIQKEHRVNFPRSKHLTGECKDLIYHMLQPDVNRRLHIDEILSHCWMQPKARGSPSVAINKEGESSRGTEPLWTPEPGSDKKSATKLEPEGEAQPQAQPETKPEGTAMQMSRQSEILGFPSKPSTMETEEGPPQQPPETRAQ
structure (smiles),measurement,setting,value
"CN(C)CCNC(=O)c1ccc(-c2ccc(-c3ccc(Cl)cc3)n2-c2ccccc2C(F)(F)F)cc1 (single isomer, unassigned) [Atropisomer A-2]",% Ctrl @ 3 μM,[1],96 % Ctrl
same,% Ctrl @ 3 μM,[2],100 % Ctrl
same,% Ctrl @ 3 μM,[3],100 % Ctrl
same,% Ctrl @ 3 μM,[4],84 % Ctrl
same,% Ctrl @ 3 μM,[5],82 % Ctrl
same,% Ctrl @ 3 μM,[6],100 % Ctrl
same,binding activity against panel kinases (% Ctrl),"[7]; 3 μM (3000 nM), ninety-seven kinases",poor or non-existent binding activity
same,% Ctrl @ 3 μM,[7]; EGFR,100 % Ctrl
same,% Ctrl @ 3 μM,[7]; KIT,100 % Ctrl
